Experimental findings from patent US10308629B2, “1H-pyrrol-3-amines” (BAYER PHARMA AKTIENGESELLSCHAFT, priority 2015, dated 2019) are described below.

Sequence of (recombinant) catalytic domain of human Bub1 (amino acids 704-1085) (O43683 704-1085): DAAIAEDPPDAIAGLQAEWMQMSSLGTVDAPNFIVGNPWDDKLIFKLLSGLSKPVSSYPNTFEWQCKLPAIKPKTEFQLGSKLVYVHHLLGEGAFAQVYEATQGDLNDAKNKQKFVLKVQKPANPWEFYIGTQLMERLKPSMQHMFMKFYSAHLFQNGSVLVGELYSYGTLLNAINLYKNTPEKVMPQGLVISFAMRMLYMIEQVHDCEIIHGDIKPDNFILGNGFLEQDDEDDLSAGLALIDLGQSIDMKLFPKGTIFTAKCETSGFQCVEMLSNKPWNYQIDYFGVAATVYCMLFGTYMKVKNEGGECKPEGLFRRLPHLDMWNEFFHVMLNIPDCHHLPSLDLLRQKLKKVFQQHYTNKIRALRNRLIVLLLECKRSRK

The test addresses (recombinant) catalytic domain of human Bub1 (amino acids 704-1085) (Homo sapiens (Human), UniProt O43683). Description: Bub1 kinase assay (TR-FRET). Type of test: biochemical. The note with it: ATP 10 μM, peptide substrate 1 μM, 60 min at 22° C., read-out: Inhibition of Bub1 kinase IC50. The source says: Bub1-inhibitory activities of compounds described in the present invention were quantified using a time-resolved fluorescence energy transfer (TR-FRET) kinase assay which measures phosphorylation of the synthetic peptide Biotin-Ahx-VLLPKKSFAEPG (SEQ ID No. 1) (C-terminus in amide form), purchased from e.g. Biosyntan (Berlin, Germany) by the (recombinant) catalytic domain of human Bub1 (amino acids 704-1085), expressed in Hi5 insect cells with an N-terminal His6-tag and purified by affinity-(Ni-NTA) and size exclusion chromatography.
In a typical assay 11 different concentrations of each compound (0.1 nM, 0.33 nM, 1.1 nM, 3.8 nM, 13 nM, 44 nM, 0.15 μM, 0.51 μM, 1.7 μM, 5.9 μM and 20 μM) were tested in duplicate within the same microtiter plate. To this end, 100-fold concentrated compound solutions (in DMSO) were previously prepared by serial dilution (1:3.4) of 2 mM stocks in a clear low volume 384-well source microtiter plate (Greiner Bio-One, Frickenhausen, Germany), from which 50 nl of compounds were transferred into a black low volume test microtiter plate from the same supplier. Subsequently, 2 μL of Bub1 (the final concentration of Bub1 was adjusted depending on the activity of the enzyme lot in order to be within the linear dynamic range of the assay: typically ˜200 ng/mL were used) in aqueous assay buffer [50 mM Tris/HCl pH 7.5, 10 mM magnesium chloride (MgCl2), 200 mM potassium chloride (KCl), 1.0 mM dithiothreitol (DTT), 0.1 mM sodium ortho-vanadate, 1% (v/v) glycerol, 0.01% (w/v) bovine serum albumine (BSA), 0.005% (v/v) Trition X-100 (Sigma), 1× Complete EDTA-free protease inhibitor mixture (Roche)] were added to the compounds in the test plate and the mixture was incubated for 15 min at 22° C. to allow pre-equilibration of the putative enzyme-inhibitor complexes before the start of the kinase reaction, which was initiated by the addition of 3 μL 1.67-fold concentrated solution (in assay buffer) of adenosine-tri-phosphate (ATP, 10 μM final concentration) and peptide substrate (1 μM final concentration). The resulting mixture (5 μL final volume) was incubated at 22° C. during 60 min. and the reaction w as stopped by the addition of 5 μL of an aqueous EDTA-solution (50 mM EDTA, in 100 mM HEPES pH 7.5 and 0.2% (w/v) bovine serum albumin) which also contained the TR-FRET detection reagents (0.2 μM streptavidin-XL665 [Cisbio Bioassays, Codolet, France] and 1 nM anti-phosho-Serine antibody [Merck Millipore, cat. #35-002] and 0.4 nM LANCE EU-W1024 labeled anti-mouse IgG antibody [Perkin-Elmer, product no. AD0077, alternatively a Terbium-cryptate-labeled anti-mouse IgG antibody from Cisbio Bioassays can be used]). The stopped reaction mixture was further incubated 1 h at 22° C. in order to allow the formation of complexes between peptides and detection reagents. Subsequently, the amount of product was evaluated by measurement of the resonance energy transfer from the Eu-chelate-antibody complex recognizing the Phosphoserine residue to the streptavidin-XL665 bound to the biotin moiety of the peptide. To this end, the fluorescence emissions at 620 nm and 665 nm after excitation at 330-350 nm were measured in a TR-FRET plate reader, e.g. a Rubystar or Pherastar (both from BMG Labtechnologies, Offenburg, Germany) or a Viewlux (Perkin-Elmer) and the ratio of the emissions (665 nm/622 nm) was taken as indicator for the amount of phosphorylated substrate. The data were normalised using two sets of control wells for high−(=enzyme reaction without inhibitor=0%=Minimum inhibition) and low−(=all assay components without enzyme=100%=Maximum inhibition) Bub1 activity. IC50 values were calculated by fitting the normalized inhibition data to a 4-parameter logistic equation (Minimum, Maximum, IC50, Hill; Y=Max+(Min−Max)/(1+(X/IC50)Hill)).
For the compound `Cn1ccc(C(=O)Nc2cc(-c3[nH]c4c(c3Nc3ccccc3)C(=O)[C@H]3C[C@@]3(C)C4=O)ccn2)n1` (relative stereo) [Example 34, 1-Methyl-N-4-[rel-(4aS,5aR)-5a-methyl-4,6-dioxo-3-(phenylamino)-1,4,4a,5,5a,6-hexahydrocyclopropa[f]indol-2-yl]pyridin-2-yl-1H-pyrazole-3-carboxamide], the IC50 was found to be 35 nM. In the case of `O=C1c2c([nH]c(-c3ccncc3)c2Nc2ccccc2)C[C@H]2C[C@@H]12` (relative stereo) [Example 12, rel-(4aR,5aR)-3-(Phenylamino)-2-(pyridin-4-yl)-4a,5,5a,6-tetrahydrocyclopropa[f]indol-4(1H)-one], the half-inhibitory concentration (IC50) amounted to 7 nM. On to “(5R,7S or 5S,7R)-2-(2-Aminopyridin-4-yl)-6,6-dimethyl-3-(phenylamino)-1,5,6,7-tetrahydro-4H-5,7-methanoindol-4-one [Example 3]”, for which the 50% inhibitory concentration (IC50) is 648 nM. Then “N-4-[[(4aS,5aS) or (4aR,5aR)]-5a-Methyl-4-oxo-3-(phenylamino)-1,4,4a,5,5a,6-hexahydrocyclopropa[f]indol-2-yl]pyridin-2-yl-1H-pyrazole-3-carboxamide [Example 44]”, with 5 nM; and “2-Fluoro-2-methyl-N-4-[[(4aR,5aR) or (4aS,5aS)]-5a-methyl-4-oxo-3-(phenylamino)-1,4,4a,5,5a,6-hexahydrocyclopropa[f]indol-2-yl]pyridin-2-ylpropanamide [Example 41]”, with 53 nM.

With “2-Fluoro-2-methyl-N-4-[[(4aS,5aS) or (4aR,5aR)]-5a-methyl-4-oxo-3-(phenylamino)-1,4,4a,5,5a,6-hexahydrocyclopropa[f]indol-2-yl]pyridin-2-ylpropanamide [Example 40]”, the IC50 came out at 22 nM.

As to `CC(=O)Nc1cc(-c2[nH]c3c(c2Nc2ccccc2)C(=O)[C@@H]2C[C@H]3C2(C)C)ccn1` (relative stereo) [Example 5, N-4-[rel-(5R,7S)-6,6-Dimethyl-4-oxo-3-(phenylamino)-4,5,6,7-tetrahydro-1H-5,7-methanoindol-2-yl]pyridin-2-ylacetamide], the half-maximal inhibitory concentration (IC50) is 115 nM. Then “1-Methyl-N-4-[[(4aS,5aS) or (4aR,5aR)]-5a-methyl-4-oxo-3-(phenylamino)-1,4,4a,5,5a,6-hexahydrocyclopropa[f]indol-2-yl]pyridin-2-yl-1H-pyrazole-5-carboxamide [Example 42]”, with 11 nM.

Take “N-4-[[(7R) or (7S)]-7-Methyl-4-oxo-3-(phenylamino)-1,4,5,6,7,8-hexahydrocyclohepta[b]pyrrol-2-yl]pyridin-2-ylacetamide [Example 39]”: the IC50 turned out to be 5 nM. For the compound `CC1(C)[C@@H]2C[C@H]1C(=O)c1c2[nH]c(-c2ccnc(N)c2)c1Nc1ccccc1` (relative stereo) [Example 2, rel-(5R,7S)-2-(2-Aminopyridin-4-yl)-6,6-dimethyl-3-(phenylamino)-1,5,6,7-tetrahydro-4H-5,7-methanoindol-4-one], the IC50 worked out at 1160 nM. To “N-4-[(4aR,5aR or 4aS,5aS)-5a-Methyl-4-oxo-3-(phenylamino)-1,4,4a,5,5a,6-hexahydrocyclopropa[f]indol-2-yl]pyridin-2-ylacetamide [Example 19]” belongs 8 nM; to “1-Fluoro-N-4-[[(4aR,5aR) or (4aS,5aS)]-5a-methyl-4-oxo-3-(phenylamino)-1,4,4a,5,5a,6-hexahydrocyclopropa[f]indol-2-yl]pyridin-2-ylcyclopropanecarboxamide [Example 31]”, 52 nM. To `COc1cc(C(=O)Nc2cc(-c3[nH]c4c(c3Nc3ccccc3)C(=O)[C@H]3C[C@@]3(C)C4=O)ccn2)ccc1F` (relative stereo) [Example 35, 4-Fluoro-3-methoxy-N-4-[rel-(4aS,5aR)-5a-methyl-4,6-dioxo-3-(phenylamino)-1,4,4a,5,5a,6-hexahydrocyclopropa[f]indol-2-yl]pyridin-2-ylbenzamide] belongs 71 nM; to “(4aR,5aR or 4aS,5aS)-5a-Methyl-3-(phenylamino)-2-(pyridin-4-yl)-4a,5,5a,6-tetrahydrocyclopropa[f]indol-4(1H)-one [Example 17]”, 5 nM. For the compound `C[C@@]12C[C@@H]1C(=O)c1c([nH]c(-c3ccnc(NC(=O)C4CC4)c3)c1Nc1ccccc1)C2=O` (relative stereo) [Example 32, N-4-[rel-(4aS,5aR)-5a-Methyl-4,6-dioxo-3-(phenylamino)-1,4,4a,5,5a,6-hexahydrocyclopropa[f]indol-2-yl]pyridin-2-ylcyclopropanecarboxamide], the IC50 was 30 nM.

As for “(4aR,5aR or 4aS,5aS)-3-(Phenylamino)-2-(pyridin-4-yl)-4a,5,5a,6-tetrahydrocyclopropa[f]indol-4(1H)-one [Example 13]”, the IC50 was 19 nM.

For the compound `C[C@@]12Cc3[nH]c(-c4ccncc4)c(Nc4ccccc4)c3C(=O)[C@@H]1C2` (relative stereo) [Example 16, rel-(4aR,5aR)-5a-Methyl-3-(phenylamino)-2-(pyridin-4-yl)-4a,5,5a,6-tetrahydrocyclopropa[f]indol-4(1H)-one], the IC50 amounted to 6 nM. Then “N-{4-[[(4aS,5aS) or (4aR,5aR)]-3-anilino-5a-methyl-4-oxo-1,4,4a,5,5a,6-hexahydrocyclopropa[f]indol-2-yl]pyridin-2-yl}-3-fluoro-4-methoxybenzamide [Example 51]”, with 12 nM. Then “(4aS,5aS or 4aR,5aR)-5a-Methyl-3-(phenylamino)-2-(pyridin-4-yl)-4a,5,5a,6-tetrahydrocyclopropa[f]indol-4(1H)-one [Example 18]”, with 6 nM; and “N-4-[(4aS,5aS or 4aR,5aR)-5a-Methyl-4-oxo-3-(phenylamino)-1,4,4a,5,5a,6-hexahydrocyclopropa[f]indol-2-yl]pyridin-2-ylacetamide [Example 20]”, with 36 nM; and `O=c1ccccc2[nH]c(-c3ccncc3)c(Nc3ccccc3)c12` [Example 21, 3-(Phenylamino)-2-(pyridin-4-yl)cyclohepta[b]pyrrol-4(1H)-one], with 8 nM. Then “(4aS,5aS or 4aR,5aR)-3-(Phenylamino)-2-(pyridin-4-yl)-4a,5,5a,6-tetrahydrocyclopropa[f]indol-4(1H)-one [Example 14]”, with 4 nM; and `CC1(C)[C@@H]2C[C@H]1C(=O)c1c2[nH]c(-c2ccnc(NC(=O)NC3CC3)c2)c1Nc1ccccc1` (relative stereo) [Example 9, 1-cyclopropyl-3-4-[rel-(5R,7S)-6,6-Dimethyl-4-oxo-3-(phenylamino)-4,5,6,7-tetrahydro-1H-5,7-methanoindol-2-yl]pyridin-2-ylurea], with 240 nM; and “(1S,2S)-2-Fluoro-N-4-[[(4aR,5aR) or (4aS,5aS)]-5a-methyl-4-oxo-3-(phenylamino)-1,4,4a,5,5a,6-hexahydrocyclopropa[f]indol-2-yl]pyridin-2-ylcyclopropanecarboxamide [Example 37]”, with 11 nM. “1-Methyl-N-4-[[(4aR,5aR) or (4aS,5aS)]-5a-methyl-4-oxo-3-(phenylamino)-1,4,4a,5,5a,6-hexahydrocyclopropa[f]indol-2-yl]pyridin-2-yl-1H-pyrazole-5-carboxamide [Example 43]”: the IC50 came out at 22 nM.

A word on the IC50: it is the concentration that gives 50% inhibition.
